Test results: paper PMC10044120, “Potent and selective covalent inhibition of the papain-like protease from SARS-CoV-2” (Nature Communications, 2023)
Several values for one entry are separate records, joined by “and”; a condition that tells them apart may be missing. Equal values may be shown once.

Columns and labels:
Format in all cases: cell-based
[1] = test system: SARS-CoV-2 Delta (B.1.617.2); assay: CPE assay, neutral red, Vero E6 cells with 2 μM CP-100356, Delta
[2] = test system: SARS-CoV-2 Omicron (B.1.1.529); assay: microbe, parasite or virus in culture
[3] = test system: SARS-CoV-2 Delta (B.1.617.2); assay: microbe, parasite or virus in culture

SMILES: COC(=O)/C=C/C(=O)NNC(=O)CCc1ccccc1C(=O)N[C@H](C)c1cccc2ccccc12 [Compound 7, methyl(R,E)-4-(2-(3-(2-((1-(naphthalen-1 yl)ethyl)carbamoyl)phenyl)propanoyl)hydrazineyl)-4-oxobut-2-enoate]
- Percent Cytopathic Effect (Neutral Red) [1]: 49.9% and 76.0% and 99.5% and 99.2%
- Virus Titer [2]: 2.5 CCID50/mL (Log10) and 3.0 CCID50/mL (Log10)
- Virus Titer [3]: 4.5 CCID50/mL (Log10) and 4.7 CCID50/mL (Log10) and 5.0 CCID50/mL (Log10)
